Experimental data from the supplement of paper PMC10307832.

What was measured:
Experiment in all cases: relative viability (nuclei count vs DMSO), 5 days (fraction); higher = more cells survive
[1] = system: LK-2
Method in brief: (§1)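 Relative viability equals treated-well nuclei counts divided by vehicle-well nuclei counts. Counts came from 4× images of lung cancer cell lines grown in 1536-well plates for 5 days after pin-tool dosing on the day after seeding. Dosing used one drug alone or a fixed anchor-drug dose plus five library-drug doses (not always all listed) in √10 steps, and values are medians of duplicate plates.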

[2] = system: NCI-H2085
Method in brief: as §1

[3] = system: SW 1573
Method in brief: as §1

[4] = system: NCI-H460
Method in brief: as §1

[5] = system: NCI-H2228
Method in brief: as §1

[6] = system: ChaGo-K-1
Method in brief: as §1

[7] = system: NCI-H596
Method in brief: as §1

[8] = system: NCI-H1944
Method in brief: as §1

[9] = system: NCI-H2347
Method in brief: as §1

[10] = system: A-427
Method in brief: as §1

[11] = system: NCI-H1666
Method in brief: as §1

[12] = system: NCI-H520
Method in brief: as §1

[13] = system: NCI-H441
Method in brief: as §1

[14] = system: NCI-H1355
Method in brief: as §1

[15] = system: NCI-H322M
Method in brief: as §1

[16] = system: NCI-H1650
Method in brief: as §1

[17] = system: NCI-H838
Method in brief: as §1

[18] = system: NCI-H3122
Method in brief: as §1

[19] = system: H3255
Method in brief: as §1

[20] = system: NCI-H1755
Method in brief: as §1

[21] = system: EKVX
Method in brief: as §1

With `O=c1[nH]c2ccccc2n1C1CCN(CCCC(c2ccc(F)cc2)c2ccc(F)cc2)CC1` [Pimozide] + CC1(C)CCC(c2ccc(Cl)cc2)=C(CN2CCN(c3ccc(C(=O)NS(=O)(=O)c4ccc(N[C@H](CCN5CCOCC5)CSc5ccccc5)c(S(=O)(=O)C(F)(F)F)c4)cc3)CC2)C1 [Navitoclax] (partner 0.5 µM) the relative viability ([1]; first compound 0.08 µM) was 0.818, the relative viability ([1]; first compound 0.253 µM) was 0.724 and the relative viability ([1]; first compound 0.8 µM) was 0.811. For the same compound, the relative viability ([1]; first compound 2.53 µM) was 0.721, the relative viability ([1]; first compound 8 µM) was 1.05 and the relative viability ([2]; first compound 0.08 µM) was 1.15. It also gave a relative viability ([2]; first compound 0.253 µM) of 1.15, a relative viability ([2]; first compound 0.8 µM) of 1.11 and a relative viability ([2]; first compound 2.53 µM) of 1.04. The relative viability ([2]; first compound 8 µM) was 1.06, the relative viability ([3]; first compound 0.08 µM) was 0.92 and the relative viability ([3]; first compound 0.253 µM) was 1.04. For the same compound, the relative viability ([3]; first compound 0.8 µM) was 0.799, the relative viability ([3]; first compound 2.53 µM) was 1.02 and the relative viability ([3]; first compound 8 µM) was 0.796. For the same compound, the relative viability ([4]; first compound 0.08 µM) was 1.19, the relative viability ([4]; first compound 0.253 µM) was 1.12 and the relative viability ([4]; first compound 0.8 µM) was 1.06. For the same compound, the relative viability ([4]; first compound 2.53 µM) was 1.06, the relative viability ([4]; first compound 8 µM) was 0.957 and the relative viability ([5]; first compound 0.08 µM) was 0.758. It also gave a relative viability ([5]; first compound 0.253 µM) of 0.715, a relative viability ([5]; first compound 0.8 µM) of 0.845 and a relative viability ([5]; first compound 2.53 µM) of 0.616. It also gave a relative viability ([5]; first compound 8 µM) of 0.614, a relative viability ([6]; first compound 0.08 µM) of 0.861 and a relative viability ([6]; first compound 0.253 µM) of 0.935. For the same compound, the relative viability ([6]; first compound 0.8 µM) was 0.974, the relative viability ([6]; first compound 2.53 µM) was 1.01 and the relative viability ([6]; first compound 8 µM) was 0.941. For the same compound, the relative viability ([7]; first compound 0.08 µM) was 0.92, the relative viability ([7]; first compound 0.253 µM) was 0.963 and the relative viability ([7]; first compound 0.8 µM) was 0.94. The relative viability ([7]; first compound 2.53 µM) was 0.677, the relative viability ([7]; first compound 8 µM) was 0.9 and the relative viability ([8]; first compound 0.08 µM) was 0.945. The relative viability ([8]; first compound 0.253 µM) was 1.05, the relative viability ([8]; first compound 0.8 µM) was 0.926 and the relative viability ([8]; first compound 2.53 µM) was 1.03. It also gave a relative viability ([8]; first compound 8 µM) of 0.995, a relative viability ([9]; first compound 0.08 µM) of 0.799 and a relative viability ([9]; first compound 0.253 µM) of 0.732. The relative viability ([9]; first compound 0.8 µM) was 0.73, the relative viability ([9]; first compound 2.53 µM) was 0.683 and the relative viability ([9]; first compound 8 µM) was 0.819. For the same compound, the relative viability ([10]; first compound 0.08 µM) was 0.965, the relative viability ([10]; first compound 0.253 µM) was 1.01 and the relative viability ([10]; first compound 0.8 µM) was 0.913. It also gave a relative viability ([10]; first compound 2.53 µM) of 0.88, a relative viability ([10]; first compound 8 µM) of 0.918 and a relative viability ([11]; first compound 0.08 µM) of 0.824. The relative viability ([11]; first compound 0.253 µM) was 1.01, the relative viability ([11]; first compound 0.8 µM) was 1.04 and the relative viability ([11]; first compound 2.53 µM) was 0.846. The relative viability ([11]; first compound 8 µM) was 0.5, the relative viability ([12]; first compound 0.08 µM) was 1.13 and the relative viability ([12]; first compound 0.253 µM) was 1.05. For the same compound, the relative viability ([12]; first compound 0.8 µM) was 1.16, the relative viability ([12]; first compound 2.53 µM) was 1.07 and the relative viability ([12]; first compound 8 µM) was 1.15. For the same compound, the relative viability ([13]; first compound 0.08 µM) was 0.685, the relative viability ([13]; first compound 0.253 µM) was 0.697 and the relative viability ([13]; first compound 0.8 µM) was 0.75. The relative viability ([13]; first compound 2.53 µM) was 0.487, the relative viability ([13]; first compound 8 µM) was 0.346 and the relative viability ([14]; first compound 0.08 µM) was 0.849. The relative viability ([14]; first compound 0.253 µM) was 1.01, the relative viability ([14]; first compound 0.8 µM) was 0.908 and the relative viability ([14]; first compound 2.53 µM) was 0.959. For the same compound, the relative viability ([14]; first compound 8 µM) was 0.856, the relative viability ([15]; first compound 0.253 µM) was 1.21 and the relative viability ([15]; first compound 0.8 µM) was 1.14. It also gave a relative viability ([15]; first compound 2.53 µM) of 1.21, a relative viability ([15]; first compound 8 µM) of 1.11 and a relative viability ([16]; first compound 0.08 µM) of 0.979. It also gave a relative viability ([16]; first compound 0.253 µM) of 1.17, a relative viability ([16]; first compound 0.8 µM) of 1.02 and a relative viability ([16]; first compound 2.53 µM) of 1.21. It also gave a relative viability ([16]; first compound 8 µM) of 0.761, a relative viability ([17]; first compound 0.08 µM) of 1.18 and a relative viability ([17]; first compound 0.253 µM) of 1.12. It also gave a relative viability ([17]; first compound 0.8 µM) of 1.01, a relative viability ([17]; first compound 2.53 µM) of 1.11 and a relative viability ([17]; first compound 8 µM) of 1.16. It also gave a relative viability ([18]; first compound 0.08 µM) of 0.987, a relative viability ([18]; first compound 0.253 µM) of 1.06 and a relative viability ([18]; first compound 0.8 µM) of 1.04. The relative viability ([18]; first compound 2.53 µM) was 0.982, the relative viability ([18]; first compound 8 µM) was 0.957 and the relative viability ([19]; first compound 0.253 µM) was 0.555. The relative viability ([19]; first compound 0.8 µM) was 0.549, the relative viability ([19]; first compound 2.53 µM) was 0.551 and the relative viability ([19]; first compound 8 µM) was 0.506. It also gave a relative viability ([20]; first compound 0.08 µM) of 0.963, a relative viability ([20]; first compound 0.253 µM) of 0.941 and a relative viability ([20]; first compound 0.8 µM) of 0.969. The relative viability ([20]; first compound 2.53 µM) was 0.882, the relative viability ([20]; first compound 8 µM) was 0.771 and the relative viability ([21]; first compound 0.253 µM) was 0.936. For the same compound, the relative viability ([21]; first compound 0.8 µM) was 0.881, the relative viability ([21]; first compound 2.53 µM) was 0.89 and the relative viability ([21]; first compound 8 µM) was 0.946.
